According to PubChem BioAssay (NCI):
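Where inhibition never reached the appropriate level, the endpoint shown equals the highest concentration tested. Otherwise, values were interpolated linearly from a five-concentration, 48-hour dose response in 96-well plates. TGI is the concentration that stops growth completely.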 Where a SMILES comes first, the peptide text is derived from it. [ ]: non-standard residue; d: D form. The star is where a group is joined. ξ: configuration not given here. ξD = NC(CC(=O)O)C(=O)O; Boc = CC(C)(C)OC(=O)*; Aib = CC(C)(N)C(=O)O; OBn = c1ccc(CO*)cc1

Columns and labels:
Assay in all cases: NCI anticancer screen, dose series, 48 h
A549 NSCLC = test system: A549 NSCLC
BT-549 breast = test system: BT-549 breast
EKVX NSCLC = test system: EKVX NSCLC
HCT-15 colon = test system: HCT-15 colon
HS 578T breast = test system: HS 578T breast
LOX IMVI melanoma = test system: LOX IMVI melanoma
MDA-MB-231 breast = test system: MDA-MB-231 breast
NCI-H226 lung = test system: NCI-H226 lung
NCI/ADR-RES ovarian = test system: NCI/ADR-RES ovarian
OVCAR-5 ovarian = test system: OVCAR-5 ovarian
SF-295 CNS = test system: SF-295 CNS
SF-539 CNS = test system: SF-539 CNS
SN12C renal = test system: SN12C renal
TK-10 renal = test system: TK-10 renal
UACC-257 melanoma = test system: UACC-257 melanoma
UACC-62 melanoma = test system: UACC-62 melanoma

Row | SMILES | TGI (A549 NSCLC) [µM] | TGI (BT-549 breast) [µM] | TGI (EKVX NSCLC) [µM] | TGI (HCT-15 colon) [µM] | TGI (HS 578T breast) [µM] | TGI (LOX IMVI melanoma) [µM] | TGI (MDA-MB-231 breast) [µM] | TGI (NCI-H226 lung) [µM] | TGI (NCI/ADR-RES ovarian) [µM] | TGI (OVCAR-5 ovarian) [µM] | TGI (SF-295 CNS) [µM] | TGI (SF-539 CNS) [µM] | TGI (SN12C renal) [µM] | TGI (TK-10 renal) [µM] | TGI (UACC-257 melanoma) [µM] | TGI (UACC-62 melanoma) [µM]
1 | CC1(C)CN(CC(=O)O)CC(Cc2ccc(OCC(=O)O)cc2)N(CC(=O)O)CC(C)(C)SS1 (stereo not drawn) | > 100 | > 100 | > 100 | > 100 | > 100 | > 100 | > 100 | > 100 | > 100 | > 100 | > 100 | > 100 | > 100 | > 100 | > 100 | > 100
2 | CC(C)(C)OC(=O)NC(CC(=O)OCc1ccccc1)C(=O)NC(C)(C)C(N)=O (stereo not drawn) (Boc-[ξD](OBn)-[Aib]-NH2) | > 100 | > 100 | > 100 | > 100 | > 100 | > 100 | > 100 | > 100 | > 100 | > 100 | > 100 | > 100 | > 100 | > 100 | > 100 | > 100
3 | O=C(N/C(=C\c1ccccc1)c1nc2ccccc2c(=O)o1)c1ccccc1 | > 100 | 66.8 | > 100 | > 100 | 75.7 | > 100 | > 71.9 | > 100 | > 100 | > 100 | > 100 | > 100 | > 100 | > 100 | > 72.6 | > 100
4 | NCCCN(CCCCN(CCCN)Cc1ccccc1)Cc1ccccc1 | > 100 | > 100 | 96.5 | > 100 | 35.7 | 40.5 | > 100 | > 100 | > 100 | 37.8 | > 100 | > 100 | 42.5 | > 100 | > 100 | > 100
5 | CCN(CC)CCCNc1ccc([N+](=O)[O-])c2nc3ccccc3c(N)c12 | 2.11 | 3.32 | 2.86 | 2.55 | 1.91 | 2.14 | 2.09 | > 10 | 2.65 | 3.43 | 1.87 | 1.88 | > 10 | > 10 | > 10 | > 10
6 | CC(NNC(=O)c1ccncc1)c1ccccc1 (stereo not drawn) | > 100 | > 100 | > 100 | > 100 | > 100 | > 100 | > 100 | > 100 | > 100 | > 100 | > 100 | > 100 | > 100 | > 100 | > 100 | > 100
7 | C/C(=C/CC[C@](C)(OC1OC(CO)C(O)C(O)C1O)[C@H]1CC[C@]2(C)[C@@H]1CC[C@@H]1[C@@]3(C)CC[C@H](O)C(C)(C)[C@@H]3C[C@H](O)[C@]12CO)CO (stereo partly drawn) | > 100 | > 100 | > 100 | > 100 | > 100 | > 100 | > 100 | > 100 | > 100 | > 100 | > 100 | > 100 | > 100 | > 100 | > 100 | > 100
8 | COc1ccccc1NC1Oc2cc3c(cc2C(c2cc(OC)c(OC)c(OC)c2)C1C)OCO3 (stereo not drawn) | > 100 | > 70.8 | > 100 | > 100 | > 25.2 | > 100 | > 23.9 | 9.92 | > 33.1 | > 100 | 2.99 | 5.24 | > 65.3 | > 100 | > 100 | > 60.9
9 | CCOC(=O)C(=[N+]=[N-])C(=O)CSC#N | > 100 | > 100 | > 100 | > 100 | > 100 | 61.9 | > 100 | > 100 | > 100 | > 100 | > 100 | 47.1 | > 100 | > 100 | > 100 | > 100
10 | O=C(O)CCC(NC(=O)c1ccc(Oc2nc3ccccc3nc2C(=O)O)cc1)C(=O)O (stereo not drawn) | > 100 | > 100 | > 100 | > 100 | > 100 | > 100 | > 100 | > 100 | > 100 | > 100 | > 100 | – | – | > 100 | > 100 | > 100
11 | O=C(C[C@@H]1CCCN2CCCC[C@H]12)N1c2ccccc2Sc2ccc(Cl)cc21 | 30.9 | 28 | 33.8 | 30.4 | 38.5 | 27.3 | 28.4 | 46 | 29.4 | 26.4 | 36.7 | 32.1 | 32.1 | 35.5 | 25.6 | –
12 | Nc1ccc(Oc2ccc(C34CC5CC(C3)CC(c3ccc(Oc6ccc(N)cc6C(F)(F)F)cc3)(C5)C4)cc2)c(C(F)(F)F)c1 | 49 | 52.1 | 30.9 | > 100 | 42.6 | 31.8 | 31.5 | 35.7 | 54.9 | 70.3 | 79.9 | – | > 100 | 31.1 | 40.3 | 62.3
13 | Cn1cc(NC(=O)Nc2cc(C(=O)Nc3cc(C(=O)Nc4ccc5cc(S(=O)(=O)O)cc(S(=O)(=O)O)c5c4)n(C)c3)n(C)c2)cc1C(=O)Nc1cc(C(=O)Nc2ccc3cc(S(=O)(=O)O)cc(S(=O)(=O)O)c3c2)n(C)c1 | > 100 | > 100 | > 100 | > 100 | > 100 | > 100 | > 100 | > 100 | > 100 | > 100 | > 100 | > 100 | > 100 | > 100 | > 100 | > 100
14 | Cc1ccc(S(=O)(=O)C2=Cc3ccccc3C2(O)c2ccccc2)cc1 (stereo not drawn) | > 100 | 63.1 | 76 | > 100 | 81.9 | 34.2 | 33.3 | 64.5 | 76.6 | > 100 | 76.9 | 47.5 | 34.3 | > 100 | > 10 | –
15 | O=S(=O)(CC(Cl)c1ccccc1)c1nc2ccccc2s1 (stereo not drawn) | 43.1 | 8.72 | 35.4 | 21.9 | > 69 | 4.04 | 30.4 | 22.1 | 49 | 28.8 | 32.6 | 23.9 | 30.3 | 34.2 | 23.2 | 40
16 | CC(=O)NC1=NC(=O)/C(=C/c2ccccc2Cl)N1C | > 100 | > 100 | > 100 | > 100 | > 100 | > 100 | > 100 | > 100 | > 100 | > 100 | > 100 | > 100 | > 100 | > 100 | > 100 | > 100
17 | COC(=O)C1(Cc2ccccc2)Cc2ccccc2C1O (stereo not drawn) | > 100 | > 100 | > 100 | > 100 | > 100 | > 100 | > 100 | > 100 | > 100 | > 100 | > 100 | > 100 | > 100 | > 100 | > 100 | > 100
18 | CCCC(=O)OCC1OC(n2cc(F)c(=O)[nH]c2=O)C(F)C1O (stereo not drawn) | > 100 | > 100 | > 100 | > 100 | > 100 | > 100 | > 100 | > 100 | > 100 | > 100 | > 100 | > 31.6 | > 100 | > 100 | > 100 | > 100
19 | Nc1nc(Cl)c(N)c(NCC2(CO)CCC(OCc3ccccc3)C2)n1 (stereo not drawn) | > 100 | > 100 | > 100 | > 100 | > 100 | > 100 | > 100 | > 100 | > 100 | > 100 | > 100 | > 100 | > 100 | > 100 | – | > 100
20 | CCOC(=O)c1c(NC(=S)Nc2ccccc2)sc2c1CCN(C)C2 | > 100 | > 100 | > 100 | > 100 | > 100 | – | > 100 | > 100 | > 100 | > 100 | > 100 | > 100 | > 100 | > 100 | > 100 | > 100
21 | COc1cc(/C=N/NC(=O)c2c(Cl)c(Cl)c(Cl)c(Cl)c2-c2nc3ccc(C(=O)c4ccccc4)cc3[nH]2)ccc1O | > 100 | > 100 | > 100 | > 100 | > 100 | > 100 | > 100 | > 100 | 77 | > 100 | > 100 | > 100 | > 100 | > 100 | > 100 | –
22 | CCC1C(NC(=O)OC)C(=O)N1[C@@H](C)c1ccccc1 (stereo partly drawn) | – | > 100 | > 100 | > 100 | > 100 | > 100 | > 100 | > 100 | > 100 | > 100 | > 100 | > 100 | > 100 | > 100 | > 100 | > 100
